Numbering of substitutions follows the chain as printed.

The values that follow come from publication PMC12678798, “Discovery of an allosteric binding site for anthraquinones at the human P2X4 receptor” (Nature Communications, 2025).

Experiment [1] deals with chimeric P2X4(P2X2) receptor c8^R265-L269 (Homo sapiens, UniProt Q99571, A266P/L269E/R265L). Nature of the experiment: cell-based.
Experiment [2] deals with T1, P2X4-Q308T receptor mutant (Homo sapiens, UniProt Q99571, Q308T).
T1 sequence (Q99571 1-388 Q308T): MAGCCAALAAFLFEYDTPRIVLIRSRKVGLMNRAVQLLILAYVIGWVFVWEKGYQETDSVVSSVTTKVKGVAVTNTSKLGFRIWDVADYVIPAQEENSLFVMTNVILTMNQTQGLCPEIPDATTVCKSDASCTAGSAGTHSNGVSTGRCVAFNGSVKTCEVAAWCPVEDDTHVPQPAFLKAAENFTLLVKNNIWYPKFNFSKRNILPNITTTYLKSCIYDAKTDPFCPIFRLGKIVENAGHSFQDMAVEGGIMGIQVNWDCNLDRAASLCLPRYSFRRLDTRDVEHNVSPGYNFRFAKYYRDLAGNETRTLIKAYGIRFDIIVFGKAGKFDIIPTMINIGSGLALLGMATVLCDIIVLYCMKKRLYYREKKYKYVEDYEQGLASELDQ
Nature of the experiment: cell-based.

Experiment [3] concerns the target T2, chimeric P2X4(P2X2) receptor c10^R301-Q308 (Homo sapiens, UniProt Q99571, A304N/D302K/DEL301-301/E307T/L303I/N306T/Q308T).
T2 construct: expressed in transfected cells; gene synthesis (Geneart), pLVX-IRES-mCherry (bicistronic, mCherry not fused)
T2 sequence (Q99571 with tags, fused parts or gaps DEL301-301/D302K/L303I/A304N/N306T/E307T/Q308T): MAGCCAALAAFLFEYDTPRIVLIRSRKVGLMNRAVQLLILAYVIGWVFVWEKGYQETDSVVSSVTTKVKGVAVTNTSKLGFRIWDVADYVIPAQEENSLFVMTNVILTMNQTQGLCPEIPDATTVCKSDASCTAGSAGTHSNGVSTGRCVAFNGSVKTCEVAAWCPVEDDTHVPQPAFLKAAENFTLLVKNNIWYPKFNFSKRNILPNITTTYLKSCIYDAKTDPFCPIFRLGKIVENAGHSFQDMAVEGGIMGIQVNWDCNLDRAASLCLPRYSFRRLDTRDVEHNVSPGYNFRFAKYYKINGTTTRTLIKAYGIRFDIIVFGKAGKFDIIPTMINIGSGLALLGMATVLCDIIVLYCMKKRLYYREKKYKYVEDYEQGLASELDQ
Also on record: method as in ref 19 (supplement). As to conditions: read-out: ATP EC50, published value, ref 19 (supplement); cited from earlier work.

Experiment [4] deals with P2X4-D302I receptor mutant (Homo sapiens, UniProt Q99571, D302I). As to the kind of experiment: cell-based.
In experiment [5] the target is T3, hP2X4-E307T receptor mutant (Homo sapiens, UniProt Q99571, E307T).
T3 construct: host or cells: Xenopus laevis oocytes injected with cRNA (pNKS2 vector)
T3 sequence (Q99571 1-388 E307T): T1 sequence (Q99571 1-388 Q308T) with E307T, T308Q
Nature of the experiment: Two-electrode voltage clamp (TEVC), P2X4-E307T in Xenopus laevis oocytes. In kind it is cell-based. As to conditions: TEVC at -60 mV, Xenopus oocytes, P2X4-E307T.

The target of experiment [6] is T4, chimeric P2X4(P2X2) receptor c6^N208-S216 (Homo sapiens, UniProt Q99571, I209R/N208D/S216R/T211D/T212G).
T4 sequence (Q99571 1-388 N208D/I209R/T211D/T212G/S216R): T1 sequence (Q99571 1-388 Q308T) with N208D, I209R, T211D, T212G, S216R, T308Q
As to the kind of experiment: cell-based.

A further experiment concerns the target T5, human wt P2X2 receptor (Homo sapiens, UniProt Q9UBL9).
T5 construct: expressed in transfected cells
T5 sequence (Q9UBL9 1-471): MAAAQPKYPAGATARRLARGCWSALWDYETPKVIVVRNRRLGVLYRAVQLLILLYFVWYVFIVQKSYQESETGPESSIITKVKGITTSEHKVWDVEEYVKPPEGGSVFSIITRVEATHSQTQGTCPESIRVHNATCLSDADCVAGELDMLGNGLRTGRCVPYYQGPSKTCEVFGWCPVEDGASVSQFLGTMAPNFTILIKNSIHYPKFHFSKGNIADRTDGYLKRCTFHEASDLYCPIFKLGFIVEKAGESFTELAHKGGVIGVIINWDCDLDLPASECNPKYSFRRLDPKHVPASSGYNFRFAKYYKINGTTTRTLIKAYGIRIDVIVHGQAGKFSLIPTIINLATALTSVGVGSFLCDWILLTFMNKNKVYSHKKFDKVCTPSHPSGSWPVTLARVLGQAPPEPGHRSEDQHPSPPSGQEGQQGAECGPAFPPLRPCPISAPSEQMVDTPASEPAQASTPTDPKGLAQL
As to the kind of experiment: ATP-induced calcium influx assay, human wt P2X2 receptor in 1321N1 astrocytoma cells. In kind it is cell-based.

P2X4-D302I receptor mutant, sequence (Q99571 whole entry D302I): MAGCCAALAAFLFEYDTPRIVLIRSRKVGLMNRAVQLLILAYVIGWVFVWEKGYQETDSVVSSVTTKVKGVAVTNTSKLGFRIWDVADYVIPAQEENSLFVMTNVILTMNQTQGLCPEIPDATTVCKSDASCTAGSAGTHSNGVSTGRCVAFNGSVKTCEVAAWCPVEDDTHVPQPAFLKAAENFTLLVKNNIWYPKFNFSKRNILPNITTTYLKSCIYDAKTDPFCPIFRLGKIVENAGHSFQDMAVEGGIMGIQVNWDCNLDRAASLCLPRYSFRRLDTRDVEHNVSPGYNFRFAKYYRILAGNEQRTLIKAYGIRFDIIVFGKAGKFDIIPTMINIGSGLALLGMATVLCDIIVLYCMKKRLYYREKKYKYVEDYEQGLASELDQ
chimeric P2X4(P2X2) receptor c8^R265-L269, sequence (Q99571 whole entry R265L/A266P/L269E): as the sequence (Q99571 whole entry D302I) above, with R265L, A266P, L269E, I302D counted along it

As usually defined, the EC50 is the concentration that produces a half-maximal response. With `Nc1ncnc2c1ncn2[C@@H]1O[C@H](COP(=O)(O)OP(=O)(O)OP(=O)(O)O)[C@@H](O)[C@H]1O` [ATP, Adenosine 5′-triphosphate], the EC50 is 0.389 µM in experiment [1]; 0.295 µM in experiment [2] (ATP EC50, P2X4-Q308T); 0.275 µM in experiment [2] (ATP pEC50 ± SEM, P2X4-Q308T); 0.862 µM in experiment [3]; 1.6 µM in experiment [4] (ATP EC50, P2X4-D302I); 1.41 µM in experiment [4] (ATP pEC50 ± SEM, P2X4-D302I). The EC50 in experiment [5] is approximately 10 µM; in experiment [6], 0.589 µM; on human wt P2X2 receptor (ATP EC50, wt hP2X2, calcium influx) it was 0.637 µM; on human wt P2X2 receptor (ATP pEC50 ± SEM, wt hP2X2), 0.759 µM.
